Measured values as given in patent US10435394B2, “Plant growth-promotion agent and method for promoting plant growth” (RIKEN, priority 2014, dated 2019).

Tests used:
Assay type in all cases: in vivo
[1] = system: Arabidopsis seeds (Columbia); assay: Plant growth promoting activity test using Arabidopsis, Experimental Method (1); settings: for plant growth promoting effects (state of sprouting): 60 μM in 1/2 MS medium, Day 23, FIG. 1
Experimental: (§1) A ½ MS medium (agarose: 0.9%; sucrose: 1.5%; Murashige & Skoog plant culture medium×½ concentration) was prepared and autoclaved. Then, the test compounds were separately added thereto at 60 μM and solidified in a plastic petri dish. Arabidopsis seeds (Columbia) were sterilized with ethanol and sown to sprout, followed by observation of conditions of leaves, roots, and stems after sprouting. DMSO alone was added as a solvent for a control.

[2] = system: Arabidopsis seeds (Columbia); assay: Plant growth promoting activity test using Arabidopsis, Experimental Method (2); settings: 15, 30, 60 μM; for growth of aerial leaves: Day 26 of sprouting, FIGS. 15 and 16; for plant growth promoting effects (state of sprouting): Day 22, FIGS. 6 and 7; for growth of aerial leaves (average leaf area per individual): Day 27 of sprouting, FIGS. 10 and 11
Experimental: as §1, with “thereto at 0 (DMSO alone), 15, 30, and 60 μM” for “thereto at 60 μM”, “conditions of leaves and roots” for “conditions of leaves, roots, and stems”, “leaves and roots after sprouting.” for “roots, and stems after sprouting.”

[3] = system: Arabidopsis seeds (Columbia); assay: Plant growth promoting activity test using Arabidopsis, Experimental Method (1); settings: 5, 15, 30, 45, 60 μM
[4] = system: rice (Nipponbare); assay: Plant growth promoting effects upon rice; settings: 15 or 30 μM in water absorbed from the bottom of the pot from Day 7; Day 21 of sprouting; FIG. 18
Experimental: A plant pot containing rice culture soil was prepared and rice (Nipponbare) was sown therein. Rice was raised with distilled water until Day 7 of sprouting. Rice was allowed to absorb distilled water containing the compound 1 (PPZ) at a concentration of 0 (DMSO alone), 15, or 30 μM from the bottom of the pot from Day 7 of sprouting. Water used was discarded every 7 days and replaced by fresh water. Rice was photographed and the plant length of rice was measured on Day 21 of sprouting or Day of 14 from the start of treatment.

[5] = system: Tomato seeds (Micro-Tom); assay: Plant growth promoting effects on tomato; settings: 5, 15, 30 μM in 1/2 MS medium; Day 73 of sprouting; FIG. 17
Experimental: as §1, with “compound 1 (PPZ) was” for “test compounds were separately”, “0 (DMSO alone), 5, 15, and 30” for “60”, “pot. Tomato” for “petri dish. Arabidopsis”, “(Micro-Tom)” for “(Columbia)”, “hypochlorous acid” for “ethanol”, “leaves” for “leaves, roots,”

c1cc2c(cc1CN1CCN(Cc3ccc4c(c3)OCO4)CC1)OCO2 [Compound 2, 1,4-dipiperonylpiperazine]
plant growth promoting effects (state of sprouting) [1]: decreased plant growth promoting activity and/or growth inhibition

O=S1(=O)CCN(Cc2ccc3c(c2)OCO3)CC1 [Compound 21]
growth of aerial leaves [2]: activity of promoting the growth of aerial leaves at the late growth stage

COc1cc(CN2CCOCC2)cc(OC)c1OC [Compound 13]
plant growth promoting effects (state of sprouting) [2]: weak plant growth promoting effects

c1cc2c(cc1CN1CCSCC1)OCO2 [Compound 12]
elongation of stems and roots ([1]; not shown in figures): excellent plant growth promoting effects for elongation of stems and roots

c1ncn(Cc2ccc3c(c2)OCO3)n1 [Compound 6]
plant growth promoting effects (state of sprouting) [1]: decreased plant growth promoting activity and/or growth inhibition

CN1CCN(Cc2ccc3c(c2)OCO3)CC1 [Compound 11]
elongation of stems and roots ([1]; not shown in figures): excellent plant growth promoting effects for elongation of stems and roots

COc1ccc(N2CCOCC2)cc1OC [Compound 15]
plant growth promoting effects (state of sprouting) [2]: weak plant growth promoting effects

COCCN(C)Cc1ccc2c(c1)OCO2 [Compound 22]
growth of aerial leaves [2]: activity of promoting the growth of aerial leaves at the late growth stage

COc1ccc(CN2CCOCC2)cc1OC [Compound 10]
elongation of the main root ([1]; not shown in figures): excellent plant growth promoting effects for elongation of the main root

c1cc2c(cc1CN1CCNCC1)OCO2 [Compound 1, 1-piperonylpiperazine]
development/growth of lateral roots ([3]; Day 13 of sprouting, constant light irradiation, FIG. 2): activity of promoting development/growth of lateral roots in the early growth stage
growth of aerial leaves and petioles ([3]; Day 21 of sprouting, FIG. 3): activity of promoting growth of aerial leaves and petioles in the late growth stage
branching ([3]; Day 35 of sprouting, FIG. 4): activity of promoting branching
salt tolerance ([3]; sodium chloride 125 mM, Day 21 of sprouting, FIG. 5): action of enhancing salt tolerance
growth of aerial leaves [2]: activity of promoting the growth of aerial leaves at the late growth stage
growth of aerial leaves (average leaf area per individual) [2]: activity of promoting growth of aerial leaves at the late growth stage
growth of aerial leaves and stems of rice (plant length) [4]: activity of promoting the growth of aerial leaves and stems of rice
growth of aerial leaves and stems of tomato [5]: activity of promoting the growth of aerial leaves and stems of tomato

c1cn(Cc2ccc3c(c2)OCO3)nn1 [Compound 7]
plant growth promoting effects (state of sprouting) [1]: decreased plant growth promoting activity and/or growth inhibition

c1cc2c(cc1CCN1CCOCC1)OCO2 [Compound 16]
growth of aerial leaves [2]: activity of promoting the growth of aerial leaves at the late growth stage
growth of aerial leaves (average leaf area per individual) [2]: activity of promoting growth of aerial leaves at the late growth stage

c1cc2c(cc1CN1CCOCC1)OCO2 [Compound 4]
growth of aerial leaves [2]: activity of promoting the growth of aerial leaves at the late growth stage
